Measured values published in patent publication US6479435B1, “Diaryl ethers and processes for their preparation and herbicidal and desiccant compositions containing them” (ISK Americas Incorporated, priority 1997, dated 2002).

Experiments:
Format in all cases: in vivo
[1] = system: Johnsongrass (Sorghum halepense, SORHA); assay: Pre-emerge greenhouse herbicide test, phytotoxicity rating; details: 14 days after application, rating scale 0-100
Outline: (§1)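 Seeds sown in sandy loam one day before track-sprayer application of acetone solutions at 125–1000 g ai/ha (187 l/ha), then surface-watered to incorporate and bottom-watered. Injury scored visually at 14 days on a 0–100 scale (0 no damage, 100 complete death).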

[2] = system: large crabgrass (Digitaria sanguinalis, DIGSA); assay: as above; details: 14 days after application, rating scale 0-100
Outline: as §1

[3] = system: redroot pigweed (Amaranthus retroflexus, AMARE); assay: as above; details: 14 days after application, rating scale 0-100
Outline: as §1

[4] = system: ivyleaf morningglory (Ipomoea hederacea, IPOHE); assay: as above; details: 14 days after application, rating scale 0-100
Outline: as §1

[5] = system: barnyardgrass (Echinochloa crusgalli, ECHCG); assay: as above; details: 14 days after application, rating scale 0-100
Outline: as §1

[6] = system: sicklepod (Cassia obtusifolia, CASOB); assay: as above; details: 14 days after application, rating scale 0-100
Outline: as §1

[7] = system: common ragweed (Ambrosia artemisiifolia L., AMBEL); assay: as above; details: 14 days after application, rating scale 0-100
Outline: as §1

[8] = system: velvetleaf (Abutilon theophrasti, ABUTH); assay: as above; details: 14 days after application, rating scale 0-100
Outline: as §1

[9] = system: lambsquarters (Chenopodium album, CHEAL); assay: as above; details: 14 days after application, rating scale 0-100
Outline: as §1

[10] = system: green foxtail (Setaria viridis, SETVI); assay: as above; details: 14 days after application, rating scale 0-100
Outline: as §1

[11] = system: field corn (Zea mays L., var. Dekalb 535, CORN); assay: Post-emerge greenhouse test, crop damage rating; details: 14 days after application
Outline: (§2)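 Plants at the 2-3 leaf stage, sown 8-21 days earlier, were track-sprayed post-emergence with compound in acetone plus 0.25% v/v non-ionic surfactant at 63-1000 g ai/ha (187 l/ha). Damage was rated at 14 days on a 0-100 scale (0 none, 100 all plants dead), for both crop injury and weed control.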

[12] = system: upland rice (Oryza sp., var.Tebonnet, RICE); assay: Post-emerge greenhouse test, crop damage rating; details: 14 days after application
Outline: as §2

[13] = system: Johnsongrass (Sorghum halepense, SORHA); assay: Post-emerge greenhouse herbicide test, phytotoxicity rating; details: 14 days after application
Outline: as §2

[14] = system: large crabgrass (Digitaria sanguinalis, DIGSA); assay: as above; details: 14 days after application
Outline: as §2

[15] = system: redroot pigweed (Amaranthus retroflexus, AMARE); assay: as above; details: 14 days after application
Outline: as §2

[16] = system: ivyleaf morningglory (Ipomoea hederacea, IPOHE); assay: as above; details: 14 days after application
Outline: as §2

[17] = system: barnyardgrass (Echinochloa crusgalli, ECHCG); assay: as above; details: 14 days after application
Outline: as §2

[18] = system: sicklepod (Cassia obtusifolia, CASOB); assay: as above; details: 14 days after application
Outline: as §2

[19] = system: velvetleaf (Abutilon theophrasti, ABUTH); assay: as above; details: 14 days after application
Outline: as §2

[20] = system: lambsquarters (Chenopodium album, CHEAL); assay: as above; details: 14 days after application
Outline: as §2

[21] = system: green foxtail (Setaria viridis, SETVI); assay: as above; details: 14 days after application
Outline: as §2

[22] = system: soybean (Glycine max L., var. Pella 86, SOY); assay: Post-emerge greenhouse test, crop damage rating; set-up: key to crop damage rating SOY: 0-100 scale: 0 = no damage, 100 = complete death of all plants; details: 14 days after application
Outline: as §2

[23] = system: common ragweed (Ambrosia artemisiifolia L., AMBEL); assay: Post-emerge greenhouse herbicide test, phytotoxicity rating; details: 14 days after application
Outline: as §2

[24] = system: soybean (Glycine max L., var. Pella 86, SOY); assay: Pre-emerge greenhouse test, crop damage rating; set-up: key to SOY crop damage rating: 0 = no damage, 100 = complete death of all plants; details: 14 days after application, rating scale 0-100
Outline: as §1

[25] = system: field corn (Zea mays L., var. Dekalb 535, CORN); assay: Pre-emerge greenhouse test, crop damage rating; details: 14 days after application, rating scale 0-100
Outline: as §1

[26] = system: upland rice (Oryza sp., var.Tebonnet, RICE); assay: Pre-emerge greenhouse test, crop damage rating; details: 14 days after application, rating scale 0-100
Outline: as §1

O=c1n(-c2cc(Oc3cccc(Cl)n3)c(Cl)cc2F)c(=S)n2n1CCCC2 [Compound 8-26]
0: SORHA phytotoxicity rating ([1]; Rate 500 g al/ha) | DIGSA phytotoxicity rating ([2]; Rate 500 g al/ha) | AMARE phytotoxicity rating ([3]; Rate 500 g al/ha) | IPOHE phytotoxicity rating ([4]; Rate 500 g al/ha) | ECHCG phytotoxicity rating ([5]; Rate 500 g al/ha) | CASOB phytotoxicity rating ([6]; Rate 500 g al/ha) | AMBEL phytotoxicity rating ([7]; Rate 500 g al/ha) | ABUTH phytotoxicity rating ([8]; Rate 500 g al/ha) | CHEAL phytotoxicity rating ([9]; Rate 500 g al/ha) | SETVI phytotoxicity rating ([10]; Rate 500 g al/ha) | crop damage rating CORN ([11]; rate 500 g ai/ha, scale 0-100) | crop damage rating RICE ([12]; rate 500 g ai/ha, scale 0-100) | phytotoxicity rating SORHA ([13]; rate 500 g ai/ha, scale 0-100) | phytotoxicity rating DIGSA ([14]; rate 500 g ai/ha, scale 0-100) | phytotoxicity rating AMARE ([15]; rate 500 g ai/ha, scale 0-100) | phytotoxicity rating IPOHE ([16]; rate 500 g ai/ha, scale 0-100) | phytotoxicity rating ECHCG ([17]; rate 500 g ai/ha, scale 0-100) | phytotoxicity rating CASOB ([18]; rate 500 g ai/ha, scale 0-100) | phytotoxicity rating ABUTH ([19]; rate 500 g ai/ha, scale 0-100) | phytotoxicity rating CHEAL ([20]; rate 500 g ai/ha, scale 0-100) | phytotoxicity rating SETVI ([21]; rate 500 g ai/ha, scale 0-100) | crop damage rating SOY ([22]; rate 500 g ai/ha, scale 0-100) | phytotoxicity rating AMBEL ([23]; rate 500 g ai/ha, scale 0-100) | SOY crop damage rating ([24]; Rate 500 g al/ha) | CORN crop damage rating ([25]; Rate 500 g al/ha) | RICE crop damage rating ([26]; Rate 500 g al/ha)

O=c1n(-c2cc(Oc3ccc([N+](=O)[O-])cc3)c(Cl)cc2F)c(=S)n2n1CCCC2 [Compound 8-8]
10: phytotoxicity rating IPOHE ([4]; 500 g ai/ha) | phytotoxicity rating CHEAL ([9]; 500 g ai/ha) | CORN crop damage rating (0-100) ([11]; 63 g al/ha) | CORN crop damage rating (0-100) ([11]; 500 g al/ha) | RICE crop damage rating (0-100) ([12]; 500 g al/ha) | SORHA phytotoxicity rating (0-100) ([13]; 63 g al/ha) | ECHCG phytotoxicity rating (0-100) ([17]; 63 g al/ha)
0: phytotoxicity rating IPOHE ([4]; 125 g ai/ha) | phytotoxicity rating ECHCG ([5]; 125 g ai/ha) | phytotoxicity rating CASOB ([6]; 125 g ai/ha) | phytotoxicity rating AMBEL ([7]; 125 g ai/ha) | phytotoxicity rating CHEAL ([9]; 125 g ai/ha) | RICE crop damage rating (0-100) ([12]; 63 g al/ha) | SORHA phytotoxicity rating (0-100) ([13]; 500 g al/ha) | DIGSA phytotoxicity rating (0-100) ([14]; 63 g al/ha) | DIGSA phytotoxicity rating (0-100) ([14]; 500 g al/ha) | ECHCG phytotoxicity rating (0-100) ([17]; 500 g al/ha) | crop damage rating SOY ([24]; 125 g ai/ha) | crop damage rating CORN ([25]; 500 g ai/ha) | crop damage rating RICE ([26]; 125 g ai/ha) | crop damage rating RICE ([26]; 500 g ai/ha)
25: SOY crop damage rating (0-100) ([22]; 63 g al/ha)
99: CHEAL phytotoxicity rating (0-100) ([20]; 63 g al/ha)
20: phytotoxicity rating ECHCG ([5]; 500 g ai/ha) | phytotoxicity rating AMBEL ([7]; 500 g ai/ha) | SETVI phytotoxicity rating (0-100) ([21]; 63 g al/ha) | crop damage rating SOY ([24]; 500 g ai/ha)
95: phytotoxicity rating SETVI ([10]; 500 g ai/ha) | AMARE phytotoxicity rating (0-100) ([15]; 63 g al/ha) | ABUTH phytotoxicity rating (0-100) ([19]; 63 g al/ha)
5: crop damage rating CORN ([25]; 125 g ai/ha)
40: phytotoxicity rating DIGSA ([2]; 125 g ai/ha) | phytotoxicity rating DIGSA ([2]; 500 g ai/ha) | CASOB phytotoxicity rating (0-100) ([18]; 63 g al/ha) | CASOB phytotoxicity rating (0-100) ([18]; 500 g al/ha) | AMBEL phytotoxicity rating (0-100) ([23]; 500 g al/ha)
90: phytotoxicity rating ABUTH ([8]; 125 g ai/ha) | IPOHE phytotoxicity rating (0-100) ([16]; 63 g al/ha)
80: phytotoxicity rating CASOB ([6]; 500 g ai/ha)
30: phytotoxicity rating SORHA ([1]; 125 g ai/ha) | phytotoxicity rating SORHA ([1]; 500 g ai/ha) | SETVI phytotoxicity rating (0-100) ([21]; 500 g al/ha) | AMBEL phytotoxicity rating (0-100) ([23]; 63 g al/ha)
75: SOY crop damage rating (0-100) ([22]; 500 g al/ha)
100: phytotoxicity rating AMARE ([3]; 125 g ai/ha) | phytotoxicity rating AMARE ([3]; 500 g ai/ha) | phytotoxicity rating ABUTH ([8]; 500 g ai/ha) | AMARE phytotoxicity rating (0-100) ([15]; 500 g al/ha) | ABUTH phytotoxicity rating (0-100) ([19]; 500 g al/ha) | CHEAL phytotoxicity rating (0-100) ([20]; 500 g al/ha)
60: phytotoxicity rating SETVI ([10]; 125 g ai/ha)
50: IPOHE phytotoxicity rating (0-100) ([16]; 500 g al/ha)
